# Measured values from publication PMC8325370 (Proceedings of the National Academy of Sciences of the …, 2021).
# Molecular target: T1, homomeric A2 channels (wt CNGA2) (Rattus norvegicus, UniProt Q00195)
# T1 sequence (Q00195 1-664): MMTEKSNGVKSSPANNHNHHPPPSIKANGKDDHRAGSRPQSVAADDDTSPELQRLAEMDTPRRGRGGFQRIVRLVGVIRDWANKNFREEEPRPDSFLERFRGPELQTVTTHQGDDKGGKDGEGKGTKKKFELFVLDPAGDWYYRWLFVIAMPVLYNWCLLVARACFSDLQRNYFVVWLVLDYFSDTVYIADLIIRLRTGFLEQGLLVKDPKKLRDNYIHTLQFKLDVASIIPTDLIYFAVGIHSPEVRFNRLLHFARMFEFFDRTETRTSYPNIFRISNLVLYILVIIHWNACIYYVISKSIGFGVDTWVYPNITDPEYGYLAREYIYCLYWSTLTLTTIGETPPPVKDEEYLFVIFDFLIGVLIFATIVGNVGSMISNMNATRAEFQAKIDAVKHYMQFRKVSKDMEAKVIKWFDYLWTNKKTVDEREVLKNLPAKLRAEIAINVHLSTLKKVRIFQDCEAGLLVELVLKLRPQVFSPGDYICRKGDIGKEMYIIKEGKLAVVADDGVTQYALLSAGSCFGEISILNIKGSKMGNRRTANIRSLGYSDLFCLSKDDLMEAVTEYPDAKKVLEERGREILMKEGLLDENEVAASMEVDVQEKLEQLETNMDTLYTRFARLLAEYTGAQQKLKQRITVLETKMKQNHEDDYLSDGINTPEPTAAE
# Assay: inside-out patch clamp, macroscopic current
# Type: biochemical
# Details: agonist; +100 mV, 150 mM KCl, pH 7.4; Xenopus oocytes
smiles,measurement,value
Nc1nc2c(ncn2[C@@H]2O[C@@H]3COP(=O)(O)O[C@H]3[C@H]2O)c(=O)[nH]1 [cGMP],EC50,concentration–activation relationships to homomeric A2 channels
